# From ChEMBL document CHEMBL3352489, “6-Hydroxyquinolinium salts differing in the length of alkyl side-chain: synthesis and antimicrobial activity” (Bioorg Med Chem Lett, 2014)
# pIC50: −log10 of the molar value.
# What was measured:
# Klebsiella pneumoniae [1] = test: microbe, parasite or virus in culture; format: functional; details: D 11750/08, 24 h
# Description: Antibacterial activity against Klebsiella pneumoniae D 11750/08 after 24 hrs by microdilution broth method
# Staphylococcus aureus [2] = test: microbe, parasite or virus in culture; format: functional; details: CCM 4516/08, 24 h
# Description: Antibacterial activity against Staphylococcus aureus CCM 4516/08 after 24 hrs by microdilution broth method
# Candida albicans [3] = test: Fungicidal activity against Candida albicans ATCC 44859 after 48 hrs by modified standard CSLI M27-A2 method; format: functional; details: ATCC 44859, 48 h
# Lichtheimia corymbifera [4] = test: microbe, parasite or virus in culture; format: functional; details: Lichtheimia corymbifera, 272, 48 h
# Description: Antifungal activity against Absidia corymbifera 272 after 48 hrs by modified standard CSLI M27-A2 method
# [5] = test system: Trichophyton mentagrophytes; test: microbe, parasite or virus in culture; format: functional; details: Trichophyton mentagrophytes, 445, 72 h
# Description: Antifungal activity against Trichophyton mentagrophytes 445 after 72 hrs by modified standard CSLI M27-A2 method
# Pseudomonas aeruginosa [6] = test: microbe, parasite or virus in culture; format: functional; details: CCM 1961, 120 h
# Description: Antibacterial activity against Pseudomonas aeruginosa CCM 1961 after 120 hrs by microdilution broth method
# Escherichia coli [7] = test: microbe, parasite or virus in culture; format: functional; details: CCM 4517, 24 h
# Description: Antibacterial activity against Escherichia coli CCM 4517 after 24 hrs by microdilution broth method
# Candida tropicalis [8] = test: microbe, parasite or virus in culture; format: functional; details: Candida tropicalis, 156, 24 h
# Description: Antifungal activity against Candida tropicalis 156 after 24 hrs by modified standard CSLI M27-A2 method
# Nakaseomyces glabratus [9] = test: Antifungal activity against Candida glabrata 20/I after 48 hrs by modified standard CSLI M27-A2 method; format: functional
# Pseudomonas aeruginosa [10] = test: Bactericidal activity against Pseudomonas aeruginosa CCM 1961 after 120 hrs by microdilution broth method; format: functional; details: CCM 1961, 120 h, read-out: MBC>99.9
# Candida tropicalis [11] = test: Fungicidal activity against Candida tropicalis 156 after 48 hrs by modified standard CSLI M27-A2 method; format: functional; details: Candida tropicalis, 156, 48 h
# Escherichia coli [12] = test: Bactericidal activity against Escherichia coli CCM 4517 after 48 hrs by microdilution broth method; format: functional; details: CCM 4517, 48 h, read-out: MBC>99.9
# Candida albicans [13] = test: microbe, parasite or virus in culture; format: functional; details: ATCC 44859, 48 h
# Description: Antifungal activity against Candida albicans ATCC 44859 after 48 hrs by modified standard CSLI M27-A2 method
# Pichia kudriavzevii [14] = test: Antifungal activity against Candida krusei E28 after 48 hrs by modified standard CSLI M27-A2 method; format: functional; details: E28, 48 h
# Pichia kudriavzevii [15] = test: Fungicidal activity against Candida krusei E28 after 48 hrs by modified standard CSLI M27-A2 method; format: functional; details: E28, 48 h
# Pichia kudriavzevii [16] = test: Antifungal activity against Candida krusei E28 after 24 hrs by modified standard CSLI M27-A2 method; format: functional; details: E28, 24 h
# Enterococcus sp. [17] = test: microbe, parasite or virus in culture; format: functional; details: J 14365/08, 48 h
# Description: Antibacterial activity against Enterococcus sp. J 14365/08 after 48 hrs by microdilution broth method
# Enterococcus sp. [18] = test: Bactericidal activity against Enterococcus sp. J 14365/08 after 48 hrs by microdilution broth method; format: functional; details: J 14365/08, 48 h, read-out: MBC>99.9
# Trichosporon asahii [19] = test: microbe, parasite or virus in culture; format: functional; details: Trichosporon asahii, 1188, 48 h
# Description: Antifungal activity against Trichosporon asahii 1188 after 48 hrs by modified standard CSLI M27-A2 method
# [20] = Cytotoxicity against CHOK1 cells after 24 hrs by MTT assay; format: ADME, cell-based; details: Cricetulus griseus, CHO-K1, 24 h
# Lichtheimia corymbifera [21] = test: microbe, parasite or virus in culture; format: functional; details: Lichtheimia corymbifera, 272, 24 h
# Description: Antifungal activity against Absidia corymbifera 272 after 24 hrs by modified standard CSLI M27-A2 method
# Staphylococcus aureus [22] = test: microbe, parasite or virus in culture; format: functional; details: H 5996/08, 48 h
# Description: Antibacterial activity against Staphylococcus aureus H 5996/08 after 48 hrs by microdilution broth method
# Candida tropicalis [23] = test: microbe, parasite or virus in culture; format: functional; details: Candida tropicalis, 156, 48 h
# Description: Antifungal activity against Candida tropicalis 156 after 48 hrs by modified standard CSLI M27-A2 method
# Klebsiella pneumoniae [24] = test: microbe, parasite or virus in culture; format: functional; details: J 14368/08, 48 h
# Description: Antibacterial activity against Klebsiella pneumoniae J 14368/08 after 48 hrs by microdilution broth method
# Pseudomonas aeruginosa [25] = test: microbe, parasite or virus in culture; format: functional; details: CCM 1961, 72 h
# Description: Antibacterial activity against Pseudomonas aeruginosa CCM 1961 after 72 hrs by microdilution broth method
# [26] = test system: Trichophyton mentagrophytes; test: microbe, parasite or virus in culture; format: functional; details: Trichophyton mentagrophytes, 445, 120 h
# Description: Antifungal activity against Trichophyton mentagrophytes 445 after 120 hrs by modified standard CSLI M27-A2 method
# Staphylococcus aureus [27] = test: microbe, parasite or virus in culture; format: functional; details: CCM 4516/08, 48 h
# Description: Antibacterial activity against Staphylococcus aureus CCM 4516/08 after 48 hrs by microdilution broth method
# [28] = test system: Staphylococcus epidermidis; test: microbe, parasite or virus in culture; format: functional; details: H 6966/08, 24 h
# Description: Antibacterial activity against Staphylococcus epidermidis H 6966/08 after 24 hrs by microdilution broth method
# Trichosporon asahii [29] = test: microbe, parasite or virus in culture; format: functional; details: Trichosporon asahii, 1188, 24 h
# Description: Antifungal activity against Trichosporon asahii 1188 after 24 hrs by modified standard CSLI M27-A2 method
# Klebsiella pneumoniae [30] = test: microbe, parasite or virus in culture; format: functional; details: D 11750/08, 48 h
# Description: Antibacterial activity against Klebsiella pneumoniae D 11750/08 after 48 hrs by microdilution broth method
# Staphylococcus aureus [31] = test: Bactericidal activity against Staphylococcus aureus CCM 4516/08 after 48 hrs by microdilution broth method; format: functional; details: CCM 4516/08, 48 h, read-out: MBC>99.9
# [32] = test system: Staphylococcus epidermidis; test: microbe, parasite or virus in culture; format: functional; details: H 6966/08, 48 h
# Description: Antibacterial activity against Staphylococcus epidermidis H 6966/08 after 48 hrs by microdilution broth method
# Staphylococcus aureus [33] = test: microbe, parasite or virus in culture; format: functional; details: H 5996/08, 24 h
# Description: Antibacterial activity against Staphylococcus aureus H 5996/08 after 24 hrs by microdilution broth method
# Nakaseomyces glabratus [34] = test: Antifungal activity against Candida glabrata 20/I after 24 hrs by modified standard CSLI M27-A2 method; format: functional
# Candida albicans [35] = test: microbe, parasite or virus in culture; format: functional; details: ATCC 44859, 24 h
# Description: Antifungal activity against Candida albicans ATCC 44859 after 24 hrs by modified standard CSLI M27-A2 method
# Klebsiella pneumoniae [36] = test: microbe, parasite or virus in culture; format: functional; details: J 14368/08, 24 h
# Description: Antibacterial activity against Klebsiella pneumoniae J 14368/08 after 24 hrs by microdilution broth method
# Aspergillus fumigatus [37] = test: microbe, parasite or virus in culture; format: functional; details: Aspergillus fumigatus, 231, 48 h
# Description: Antifungal activity against Aspergillus fumigatus 231 after 48 hrs by modified standard CSLI M27-A2 method
# Escherichia coli [38] = test: microbe, parasite or virus in culture; format: functional; details: CCM 4517, 48 h
# Description: Antibacterial activity against Escherichia coli CCM 4517 after 48 hrs by microdilution broth method
# Lichtheimia corymbifera [39] = test: Fungicidal activity against Absidia corymbifera 272 after 48 hrs by modified standard CSLI M27-A2 method; format: functional; details: Lichtheimia corymbifera, 272, 48 h
# Trichosporon asahii [40] = test: Fungicidal activity against Trichosporon asahii 1188 after 48 hrs by modified standard CSLI M27-A2 method; format: functional; details: Trichosporon asahii, 1188, 48 h
# Klebsiella pneumoniae [41] = test: Bactericidal activity against Klebsiella pneumoniae D 11750/08 after 24 hrs by microdilution broth method; format: functional; details: D 11750/08, 24 h, read-out: MBC>99.9
# Aspergillus fumigatus [42] = test: microbe, parasite or virus in culture; format: functional; details: Aspergillus fumigatus, 231, 24 h
# Description: Antifungal activity against Aspergillus fumigatus 231 after 24 hrs by modified standard CSLI M27-A2 method
# Enterococcus sp. [43] = test: microbe, parasite or virus in culture; format: functional; details: J 14365/08, 24 h
# Description: Antibacterial activity against Enterococcus sp. J 14365/08 after 24 hrs by microdilution broth method
# Nakaseomyces glabratus [44] = test: Fungicidal activity against Candida glabrata 20/I after 48 hrs by modified standard CSLI M27-A2 method; format: functional
# [45] = test system: Trichophyton mentagrophytes; test: Fungicidal activity against Trichophyton mentagrophytes 445 after 120 hrs by modified standard CSLI M27-A2 method; format: functional; details: Trichophyton mentagrophytes, 445, 120 h
# Staphylococcus aureus [46] = test: Bactericidal activity against Staphylococcus aureus H 5996/08 after 48 hrs by microdilution broth method; format: functional; details: H 5996/08, 48 h, read-out: MBC>99.9
# Aspergillus fumigatus [47] = test: Fungicidal activity against Aspergillus fumigatus 231 after 48 hrs by modified standard CSLI M27-A2 method; format: functional; details: Aspergillus fumigatus, 231, 48 h
# Klebsiella pneumoniae [48] = test: Bactericidal activity against Klebsiella pneumoniae J 14368/08 after 48 hrs by microdilution broth method; format: functional; details: J 14368/08, 48 h, read-out: MBC>99.9
# [49] = test system: Staphylococcus epidermidis; test: Bactericidal activity against Staphylococcus epidermidis H 6966/08 after 48 hrs by microdilution broth method; format: functional; details: H 6966/08, 48 h, read-out: MBC>99.9
smiles,measurement,setting,value
CCCCCCCCCCCCCCCC[N+](C)(C)Cc1ccccc1,MIC95,Klebsiella pneumoniae [1],7.81 µM
same,MIC95,Staphylococcus aureus [2],0.98 µM
same,MFC,Candida albicans [3],7.81 µM
same,MIC,Lichtheimia corymbifera [4],7.81 µM
same,MIC,[5],7.81 µM
same,MIC95,Pseudomonas aeruginosa [6],31.2 µM
same,MIC95,Escherichia coli [7],7.81 µM
same,MIC,Candida tropicalis [8],3.91 µM
same,MIC,Nakaseomyces glabratus [9],3.91 µM
same,MBC,Pseudomonas aeruginosa [10],125 µM
same,MFC,Candida tropicalis [11],7.81 µM
same,MBC,Escherichia coli [12],7.81 µM
same,MIC,Candida albicans [13],7.81 µM
same,MIC,Pichia kudriavzevii [14],1.95 µM
same,MFC,Pichia kudriavzevii [15],1.95 µM
same,MIC,Pichia kudriavzevii [16],1.95 µM
same,MIC95,Enterococcus sp. [17],1.95 µM
same,MBC,Enterococcus sp. [18],3.91 µM
same,MIC,Trichosporon asahii [19],7.81 µM
same,pIC50,[20],4.82
same,MIC,Lichtheimia corymbifera [21],7.81 µM
same,MIC95,Staphylococcus aureus [22],1.95 µM
same,MIC,Candida tropicalis [23],7.81 µM
same,MIC95,Klebsiella pneumoniae [24],7.81 µM
same,MIC95,Pseudomonas aeruginosa [25],15.6 µM
same,MIC,[26],7.81 µM
same,MIC95,Staphylococcus aureus [27],0.98 µM
same,MIC95,[28],0.49 µM
same,MIC,Trichosporon asahii [29],7.81 µM
same,MIC95,Klebsiella pneumoniae [30],7.81 µM
same,MBC,Staphylococcus aureus [31],3.91 µM
same,MIC95,[32],0.49 µM
same,MIC95,Staphylococcus aureus [33],1.95 µM
same,MIC,Nakaseomyces glabratus [34],1.95 µM
same,MIC,Candida albicans [35],3.91 µM
same,MIC95,Klebsiella pneumoniae [36],7.81 µM
same,MIC,Aspergillus fumigatus [37],7.81 µM
same,MIC95,Escherichia coli [38],7.81 µM
same,MFC,Lichtheimia corymbifera [39],62.5 µM
same,MFC,Trichosporon asahii [40],62.5 µM
same,MBC,Klebsiella pneumoniae [41],7.81 µM
same,MIC,Aspergillus fumigatus [42],7.81 µM
same,MIC95,Enterococcus sp. [43],1.95 µM
same,MFC,Nakaseomyces glabratus [44],62.5 µM
same,MFC,[45],62.5 µM
same,MBC,Staphylococcus aureus [46],3.91 µM
same,MFC,Aspergillus fumigatus [47],62.5 µM
same,MBC,Klebsiella pneumoniae [48],7.81 µM
same,MBC,[49],3.91 µM
CCCCCCCCCCCCCCCC[n+]1ccccc1 [CETYLPYRIDINIUM BROMIDE],MFC,Candida albicans [3],15.6 µM
same,MBC,Pseudomonas aeruginosa [10],125 µM
same,MFC,Candida tropicalis [11],3.9 µM
same,MBC,Escherichia coli [12],7.81 µM
same,MFC,Pichia kudriavzevii [15],1.95 µM
same,MBC,Enterococcus sp. [18],7.81 µM
same,MBC,Staphylococcus aureus [31],3.91 µM
same,MFC,Lichtheimia corymbifera [39],62.5 µM
same,MFC,Trichosporon asahii [40],7.81 µM
same,MBC,Klebsiella pneumoniae [41],15.6 µM
same,MFC,Nakaseomyces glabratus [44],3.91 µM
same,MFC,[45],7.81 µM
same,MBC,Staphylococcus aureus [46],3.91 µM
same,MFC,Aspergillus fumigatus [47],15.6 µM
same,MBC,Klebsiella pneumoniae [48],7.81 µM
same,MBC,[49],3.91 µM
